# Like-named read-outs stand apart in the source and are kept apart here.
# How the values were obtained:
# SIVmac251 = conditions: two weeks treatment with GA, in less than 2 months, chronic SIV infection, no anti-retroviral therapy, pilot study with 2 animals
# Procedure: Correlation between the plasma viral load and the classical CD8 T cells (FIG. 9B) and with the HLA-E restricted CD8 T cells (FIG. 9C) were evaluated. The Spearman coefficients (r) and p-values are indicated.
# HLA-E on CD4 T cells = test system: HLA-E on CD4 T cells
# Excerpt: Follow-up of the percentage of CD4 T cells expressing MHC-E on their surface (FIG. 7D).
# [1] = test system: CD32a^high CD4 T cells expressing HLA-E; conditions: spleen, 2 macaques treated with GA
# Excerpt: FIG. 10A) Flow cytometry dot plots. CD32a^highHLA-E^+ CD4^+ T cells from AGM and macaques are shown in blue. […] MAC=macaque.
# [2] = test system: HLA-E restricted CD8 T cells; conditions: at euthanasia, GA treated animal versus chronically SIV infected AGM
# [3] = test system: HLA-E restricted CD8 T cells; conditions: at around day 25, chronically SIV-infected GA treated macaques, versus 20%
# [4] = test system: HLA-E restricted (NKG2A/C+) NK cells; conditions: at around day 25, chronically SIV-infected GA treated macaques, versus 20%
# pathogenic CD4 T cells = conditions: in vivo; cited from earlier work
# [5] = MS patients treated with GA for >10 years; cited from earlier work
substance,measurement,setting,value
"L-glutamic acid polymer with L-alanine, L-lysine and L-tyrosine, acetate (salt) [GA]",decrease of viremia,SIVmac251,≤ 2 logs
same,expression of HLA-E on CD4 T cells,"HLA-E on CD4 T cells; animal the most advanced in disease, no HLA-E before treatment, continued to increase after treatment cessation",increase HLA-E levels
same,expression of HLA-E on CD4 T cells,HLA-E on CD4 T cells; animal with already very high expression before treatment,remained as high
same,effect on latently infected cells (CD32a^high CD4 T),[1],targets CD32a^high CD4 T cells expressing HLA-E
same,levels of HLA-E restricted CD8 T cells in the intestine,[2],comparable levels or even higher to those in AGM
same,CD107a on HLA-E restricted CD8 T cells,[3],60%
same,CD107a on NK cells,[4],60%
same,efficacy in mouse model of inflammatory bowel diseases,pathogenic CD4 T cells,efficient
same,efficacy,[5],long-term efficacy

# — patent publication US10815540B2, “Treatments to eliminate HIV reservoirs and reduce viral load” (INSTITUT PASTEUR, priority 2017, dated 2020)
